From patent publication US7173004B2, “Macrocyclic isoquinoline peptide inhibitors of hepatitis C virus” (Bristol-Myers Squibb Company, priority 2003, dated 2007)
pIC50: −log10 of the molar value.

Target: T1, HCV NS3/4A protease complex, BMS strain (genotype 1a) (UniProt P27958, C1454S/C1711G, species not given/STRAIN_BMS)
T1 construct: b1001: DNA encoding the recombinant HCV NS3/4A protease complex (amino acids 1027 to 1711) ... a three-lysine solubilizing tail was added at the 3′-end of the NS4A coding region; fused on or other part: Three-lysine solubilising tail at the C-terminus of NS4A; A His tag is implied by the pET21b vector and Ni-NTA purification
Assay: Recombinant HCV NS3/4A protease complex FRET peptide assay, BMS strain
Type: biochemical
Settings: NS3/4A BMS strain; activity range symbols
Summary of the method: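 Recombinant NS3/4A (aa 1027–1711) from H77C, J4L6S or BMS strains, with C1454S and C1711G mutations and three-lysine tail, expressed in E. coli and Ni-NTA/gel-filtration purified to >90%. Inhibition of cleavage of a FRET peptide substrate measured.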

Row | SMILES | pIC50
1 | COc1ccc2c(O[C@@H]3C[C@H]4C(=O)N[C@]5(C(=O)NS(=O)(=O)C6CC6)C[C@H]5/C=C\CCCOC[C@H](NC(=O)OC(C)(C)C)C(=O)N4C3)nccc2c1 [Compound 85, (1S,4R,6S,14S,18R)-[7-cis-4-Cyclopropanesulfonylaminocarbonyl-18-(6-methoxy-isoquinolin-1-yloxy)-2,15-dioxo-12-oxa-3,16-diaza-tricyclo[14.3.0.0^4,6]nonadec-7-en-14-yl]-carbamic acid, tert-butyl ester] | > 7.30
2 | COc1ccc2c(OC3CC4C(=O)NC5(C(=O)NS(=O)(=O)C6CC6)CC5C=CCCCOCC(NC(=O)OC(C)C)C(=O)N4C3)nc(-c3ccc(N(C)C)cc3)cc2c1 (centres unmarked) [Compound 109] | > 7.30
3 | COc1ccc2c(OC3CC4C(=O)NC5(C(=O)NS(=O)(=O)C6CC6)CC5C=CCOCCCC(NC(=O)OCC(C)(C)C)C(=O)N4C3)nc(-c3ccccc3)cc2c1 (centres unmarked) [Compound 103] | > 7.30
4 | COc1ccc2c(O[C@@H]3C[C@H]4C(=O)N[C@]5(C(=O)NS(=O)(=O)C6CC6)C[C@H]5/C=C\COCC[C@H](NC(=O)OC(C)(C)C)C(=O)N4C3)nccc2c1 [Compound 141, [(Z)-(1S,4R,13S,17R)-4-cyclopropanesulfonylaminocarbonyl-17-(6-methoxy-isoquinolin-1-yloxy)-2,14-dioxo-10-oxa-3,15-diaza-tricyclo[13.3.0.0^4,6]octadec-7-en-13-yl]-carbamic acid tert-butyl ester] | 6.30 to 7.30
5 | CCC1(S(=O)(=O)NC(=O)C23CC2C=CCCCSCC(NC(=O)OC(C)(C)C)C(=O)N2CC(Oc4nccc5cc(OC)ccc45)CC2C(=O)N3)CC1 (centres unmarked) [Compound 121] | > 7.30
6 | COc1cccc2c(OC3CC4C(=O)NC5(C(=O)NS(=O)(=O)C6CC6)CC5C=CCCCCCC(NC(=O)OC(C)(C)C)C(=O)N4C3)nccc12 (centres unmarked) [Compound 133] | > 7.30
7 | CN1CCC/C=C\[C@@H]2C[C@@]2(C(=O)NS(=O)(=O)C2CC2)NC(=O)[C@@H]2C[C@@H](Oc3nccc4ccccc34)CN2C(=O)[C@@H](NC(=O)OC(C)(C)C)C1 [Compound 147] | > 7.30
8 | COc1ccc2c(OC3CC4C(=O)NC5(C(=O)NS(=O)(=O)C6CC6)CC5C=CCCCOCC(NC(=O)OC5CCCC5)C(=O)N4C3)nc(-c3ccccc3)cc2c1 (centres unmarked) [Compound 94] | > 7.30
9 | COc1ccc2c(OC3CC4C(=O)NC5(C(=O)NS(=O)(=O)C6CC6)CC5C=CCCCCCC(NC(=O)OC(C)(C)C)C(=O)N4C3)nccc2c1OC (centres unmarked) [Compound 134] | > 7.30
10 | CC(C)(C)OC(=O)N[C@H]1CNCCC/C=C\[C@@H]2C[C@@]2(C(=O)NS(=O)(=O)C2CC2)NC(=O)[C@@H]2C[C@@H](Oc3nccc4ccccc34)CN2C1=O [Compound 151] | > 7.30
11 | COc1ccc2c(OC3CC4C(=O)NC5(C(=O)NS(=O)(=O)C6CC6)CC5C=CCCCOCC(NC(=O)OCC(C)(C)C)C(=O)N4C3)nc(-c3ccccc3)cc2c1 (centres unmarked) [Compound 95] | > 7.30
